Assay results reported in patent US20220119399A1, “COMPOUNDS AND COMPOSITIONS THAT CAUSE MYCN AND/OR CMYC DEGRADATION AND METHODS OF USE THEREOF” (THE TRUSTEES OF COLUMBIA UNIVERSITY IN THE CITY OF NEW YORK, priority 2018, published 2022).
Entries after “also recorded” stand apart in the source; their conditions may differ. Where a SMILES comes first, the peptide text is derived from it. The star is where a group is joined. Cbz = O=C(OCc1ccccc1)*

Tests used:
[1] = Metabolic stability in mouse liver microsomes; type: in vitro ADME; settings: 2 h incubation, positive control
Protocol: Mouse liver microsomes (Xenotech) were diluted to 0.5 mg/mL in a solution containing 100 mM PBS buffer at 7.4 pH, an NADPH regenerating system (Promega), and test compounds at 20 μM. The mixture was incubated at 37° C. under gentle rotation for the indicated time points. The reaction was quenched by aliquoting 15 μL of solution into 60 μL ice-cold acetonitrile containing an internal standard. Test compounds were quantified by LC-MS using a system comprised of a Thermo Scientific Dionex Ultimate 3000 and a Bruker amaZon SL equipped with an electrospray ionization source controlled by a Bruker Hystar 3.2. Compounds were separated by injecting 20 μL of sample onto an Agilent Eclipse Plus C18 column (2.1×50 mm, […]) maintained at 20° C., with the flow rate set at 400 μL/min. Initial flow conditions were 60% solvent A (MilliQ H2O, 0.1% acetic acid), and 40% solvent B (HPLC-grade MeOH, 0.1% acetic acid). Solvent B was raised to 60% over 0.25 min and to 70% by 6.75 min. Solvent B was raised to 95% by 7 min and lowered back to 40% by 8 minutes; total run time was 9 min.

SK-N-Be2 cells [2] = assay: Cell viability assay (CellTiterGlo) in SK-N-Be2 cells; type: cell-based, human; settings: for IC20: determined empirically
[3] = test system: Histone H3 phosphorylation; assay: Histone H3 phosphorylation western blot; type: cell-based; settings: 1 μM
Source text: Membranes were blocked using Odyssey Blocking Buffer (LI-COR) for 1 hr at room temperature. […] Primary antibodies used in these studies include: MycN (CST; 1:500 dilution), Actin (SCBT; 1:2000 dil.), cMYC (CST; 1:500 dil.), pAKT (S473; CST; 1:500 dil.), AKT (CST; 1:2000), pP70 (T389; CST; 1:1000) P70 (CST; 1:1000).
We also compared the potency of these drugs against a recently developed AurKA inhibitor that acts by disrupting protein confirmation rather than simply blocking the protein:protein interaction site as alisertib does.

SK-N-Be2 cells [4] = type: in vitro ADME, human
Protocol: In brief, SK-N-Be2 cells were seeded at 400 k cells/well in 6 w plates and incubated overnight. The following day, compounds were added to wells at indicated concentrations, with DMSO-only control added to non-treated wells. Following treatment for the indicated time periods, cells were trypsinized, rinsed twice with cold PBS to remove media, pelleted by centrifugation, and frozen at −20° C. To extract compounds, frozen pellets were resuspended in 150 μL of acetonitrile, sonicated for 2′, and centrifuged at 1400×g for 75′ at 4° C. Supernatant was collected and analyzed by LC-MS using a system comprised of a Thermo Scientific Dionex Ultimate 3000 and a Bruker amaZon SL equipped with an electrospray ionization source controlled by a Bruker Hystar 3.2. Compounds were separated by injecting 20 μL of supernatant onto an Agilent Eclipse Plus C18 column (2.1×50 mm, […]) maintained at 20° C., with the flow rate set at 400 μL/min. Initial flow conditions were 60% solvent A (MilliQ H2O, 0.1% acetic acid), and 40% solvent B (HPLC-grade MeOH, 0.1% acetic acid). Solvent B was raised to 60% over 0.25 min and to 70% by 6.75 min. Solvent B was raised to 95% by 7 min and lowered back to 40% by 8 minutes; total run time was 9 min (Bos et al. 2019).

mutant isoform of CK2a1 = assay: Cell viability after expression of mutant CK2a1 isoform; settings: versus GFP-expressing plasmid
CK2a1 = molecular target: T1, CK2a1 (Homo sapiens, UniProt P68400); assay: Cell-free biochemical CK2a1 kinase assay
T1 construct: purchased Reaction Biology Corporation (Malvern, Pa.)
Protocol: Cell-free biochemical kinase assays were performed at Reaction Biology Corporation (Malvern, Pa.). In brief, kinase substrates were diluted into reaction buffer containing 20 mM Hepes (pH 7.5), 10 mM MgCl2, 1 mM EGTA, 0.02% Brij35, 0.02 mg/ml BSA, 0.1 mM Na3VO4, 2 mM DTT, 1% DMSO. Purified protein (CK2a1, CK2a2, or mTOR) was added to the substrate solution and gently mixed. Test compounds were diluted from 10 mM DMSO stock solutions into the reaction buffer using an Echo550 acoustic dispenser, followed by incubation at RT for 20 min. 33P-ATP (10 μCi/μL) was added to reaction mixture, following incubation for 2 h at RT. Reactions were then spotted onto P81 ion exchange paper and kinase activity was detected by filter binding method.

[5] = test system: MycN^AMP regulatory module (Master Regulators, TCM); assay: PLATE-Seq with VIPER analysis: reversion of the MycN^AMP master regulator module; type: cell-based, human; settings: SK-N-Be2 cells, IC20, 24 hrs
Source text: Reads were mapped against the human reference genome version Grch38 using the STAR aligner, and used the variance stabilizing transformation from the DESeq2 package for R to normalize each plate. Next, we corrected for batch effect due to having compounds replicates on separate plates. We used the function combat from the sva package for R to compute the batch-corrected normalized gene expression, and fitted a linear model for each compound against the set of DMSO controls on each plate (6 wells per plate per DMSO-treated cells). We used the limma package for R to fit the linear model and to compute p-values and moderated t-statistics for each gene. For each compound, we used a vector of these statistics to generate a gene expression profile of z-scores representing the compound effect as differential between post- and pre-treatment.
Each compound gene expression profile was analyzed using the VIPER algorithm (Alvarez et al. 2016) with TARGET and NRC NBL interactomes, reverse-engineered as described in (Rajbhandari et al. 2018), resulting in two protein activity profiles for each compound that were integrated using Stouffer's z-score method.

MYCN transcript = assay: RNASeq analysis of SK-N-Be2 cells, MYCN transcript; type: cell-based, human; settings: 3 μM or 10 μM, 3 h and 6 h
Protocol: (§1) To uncover changes in gene expression that underpin responses to pomiferin and isopomiferin, RNASeq analysis of SK-N-Be2 cells was performed following treatment with the two active prenylated isoflavonoids as well as a null analog that served as a negative control. SK-N-Be2 cells were treated with either 3 μM or 10 μM of isopomiferin or pomiferin and sampled after 3 h and 6 h. […] By comparing the active to the null analogs, downstream analyses can focus on changes in gene expression associated with the MYCN signature.

MYCN MR signature = assay: RNASeq with VIPER analysis of the MYCN MR signature; type: cell-based, human; settings: SK-N-Be2 cells; listed as dimethyl pomiferin
Protocol: as §1
Intriguingly, only six MRs were suppressed by pomiferin and isopomiferin, while being unaffected by the null analog dimethyl pomiferin (FIG. 20B).

TEAD4 transcript = assay: RNASeq analysis of SK-N-Be2 cells, TEAD4 transcript; type: cell-based, human; settings: 3 μM or 10 μM, 3 h and 6 h
Protocol: as §1

mTOR = mTOR (Homo sapiens, UniProt P42345); settings: Bajer et al. 2014; cited from earlier work
[6] = Homo sapiens, SKNBE2, SK-N-Be2 cells

T1 sequence (P68400 whole entry): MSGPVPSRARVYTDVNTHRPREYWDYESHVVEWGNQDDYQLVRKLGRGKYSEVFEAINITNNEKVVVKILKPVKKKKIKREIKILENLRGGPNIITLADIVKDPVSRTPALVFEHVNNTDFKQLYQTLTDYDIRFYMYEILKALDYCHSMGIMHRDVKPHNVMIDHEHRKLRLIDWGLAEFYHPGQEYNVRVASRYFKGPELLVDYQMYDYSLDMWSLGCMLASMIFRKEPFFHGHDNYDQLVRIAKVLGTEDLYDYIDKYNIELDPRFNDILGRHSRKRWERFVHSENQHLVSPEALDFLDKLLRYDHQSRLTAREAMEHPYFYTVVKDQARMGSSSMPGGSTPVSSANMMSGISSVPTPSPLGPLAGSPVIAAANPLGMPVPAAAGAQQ

**Q.** Which “metabolism by mouse liver microsomes” value [1] does the source give for `CCOc1ccc2ccc(=O)oc2c1` [7-ethoxycoumarin, reference compound] here?
**A.** metabolized across the duration of the assay

**Q.** Which IC20 (SK-N-Be2 cells [2]; SK-N-Be2 cells) does the source give for `CN(C)c1ccc2nc3ccc(N)cc3[s+]c2c1.[Cl-]` [Azure A] here?
**A.** 1000 nM

**Q.** And the “Histone H3 phosphorylation” value [3]?
**A.** inhibit Histone H3 phosphorylation

**Q.** Which cell permeability (SK-N-Be2 cells [4]) does the source give for `O=C(O)c1ccc2c(c1)nc(Nc1cccc(Cl)c1)c1ccncc12` [CX-4945] here?
**A.** poor cell permeability

**Q.** What about the “amount of compound detected in cell sample” value (SK-N-Be2 cells [4]; human, 20 μM) of the same molecule?
**A.** 2.2 ng

**Q.** What about the “resistance conferred by mutant CK2 isoform” value (mutant isoform of CK2a1) of the same molecule?
**A.** modest resistance

**Q.** And the CK2a1 kinase activity (CK2a1)?
**A.** completely inhibited kinase activity of CK2a at all concentrations tested

**Q.** For `Oc1ccc(Cl)c2cccnc12` [Cloxyquin], which IC20 (SK-N-Be2 cells [2]; [6]) is on record?
**A.** 5000 nM

**Q.** With `CC(C)C[C@@H](C=O)NC(=O)[C@H](CC(C)C)NC(=O)[C@H](CC(C)C)NC(=O)OCc1ccccc1` [MG132] (Cbz-Leu-Leu-Leu-aldehyde) as the molecule, how does the “resistance conferred by mutant CK2 isoform” value (mutant isoform of CK2a1) read?
**A.** no resistance was conferred by the plasmid

**Q.** For `CN(C)c1ccc2nc3ccc(=[N+](C)C)cc-3sc2c1` [Methylene Blue], which IC20 (SK-N-Be2 cells [2]; [6]) is on record?
**A.** 2000 nM

**Q.** What about the “Histone H3 phosphorylation” value [3] of the same molecule?
**A.** inhibit Histone H3 phosphorylation

**Q.** With `COc1c(C)c2c(c(O)c1C/C=C(\C)CCC(=O)O)C(=O)OC2` [Mycophenolic acid] as the molecule, how does the IC20 (SK-N-Be2 cells [2]; [6]) read?
**A.** 2500 nM

**Q.** Which IC20 (SK-N-Be2 cells [2]; SK-N-Be2 cells) does the source give for `c1ccc(-c2cccc(-c3ccccn3)n2)nc1` [NSC3905] here?
**A.** 3000 nM

**Q.** With `CC(=O)[C@@]1(O)[C@H](C)C[C@H]2[C@@H]3C=C(C)C4=Cc5c(cnn5-c5ccccc5)C[C@]4(C)[C@H]3[C@@H](O)C[C@@]21C` [NSC80997] as the molecule, how does the IC20 (SK-N-Be2 cells [2]; SK-N-Be2 cells) read?
**A.** 7500 nM

**Q.** For `CO[C@H]1/C=C\C=C(/C)C(=O)NC2=CC(=O)C(N)=C(C[C@@H](C)C[C@H](OC)[C@H](O)[C@@H](C)/C=C(\C)[C@@H]1OC(N)=O)C2=O` [NSC255109], which IC20 (SK-N-Be2 cells [2]; SK-N-Be2 cells) is on record?
**A.** 2500 nM

**Q.** With `OC(c1cc(-c2ccc(C(F)(F)F)cc2)nc(C(F)(F)F)c1)C1CCCCN1` (stereo not shown) [NSC305798] as the molecule, how does the IC20 (SK-N-Be2 cells [2]; SK-N-Be2 cells) read?
**A.** 5000 nM

**Q.** Which IC20 (SK-N-Be2 cells [2]; [6]) does the source give for `CC[C@@H](C(=O)O)[C@@H]1O[C@@H]([C@@H](C)[C@H](O)[C@H](C)C(=O)[C@H](CC)[C@H]2O[C@]3(C=C[C@@H](O)[C@]4(CC[C@@](C)([C@H]5CC[C@](O)(CC)[C@H](C)O5)O4)O3)[C@H](C)C[C@@H]2C)[C@@H](C)C[C@@H]1C` [Narasin] here?
**A.** 1000 nM

**Q.** With `COc1cc([C@@H]2c3cc4c(cc3[C@H](O)[C@H]3COC(=O)[C@H]23)OCO4)cc(OC)c1OC` [Podofilox] as the molecule, how does the IC20 (SK-N-Be2 cells [2]; [6]) read?
**A.** 1000 nM

**Q.** What does the source list for `COc1cc(Nc2ncc3c(n2)-c2ccc(Cl)cc2C(c2c(F)cccc2OC)=NC3)ccc1C(=O)O` [alisertib]?
**A.** reversion of the MR regulatory module / TCM (VIPER of PLATE-Seq) [5]: does not suppress the regulatory signature in the same way as isopomiferin; Histone H3 phosphorylation [3]: inhibit Histone H3 phosphorylation

**Q.** With `COc1cccc2c1C(=O)c1c(O)c3c(c(O)c1C2=O)C[C@@](O)(C(=O)CO)C[C@@H]3O[C@H]1C[C@H](N)[C@H](O)[C@H](C)O1` [doxorubicin] as the molecule, how does the “reversion of the MR regulatory module / TCM (VIPER of PLATE-Seq)” value [5] read?
**A.** induced spurious effects

**Q.** With `c1ccc2c(c1)Nc1ccccc1S2` [phenothiazine] as the molecule, how does the “reversion of the MR regulatory module / TCM (VIPER of PLATE-Seq)” value [5] read?
**A.** does not revert the signature

**Q.** What about the “activity in NBL cells (cell viability)” value (SK-N-Be2 cells [2]; NBL cell lines, 48 hrs) of the same molecule?
**A.** inactive in NBL

**Q.** Which results are given for `COc1ccc(-c2coc3c4c(c(CC=C(C)C)c(O)c3c2=O)OC(C)(C)C=C4)cc1OC` [pomiferin dimethyl ether, 3-(3,4-dimethoxyphenyl)-5-hydroxy-8,8-dimethyl-6-(3-methylbut-2-en-1-yl)-4H,8H-pyrano[2,3-f]chromen-4-one]?
**A.** inhibition of SK-N-Be2 cell viability (rank or activity in words) (SK-N-Be2 cells [2]; SK-N-Be2 cells, 72 hrs): inactivity at 20 μM; MYCN transcript abundance (RNASeq) (MYCN transcript): did not affect either MYCN or TEAD4; effect on the MYCN MR signature (VIPER of RNASeq) (MYCN MR signature): does not revert the MYCN signature; also recorded: did not; TEAD4 transcript (RNASeq) (TEAD4 transcript): did not affect either MYCN or TEAD4

**Q.** Which “mTOR activity and general kinase inhibition” value (mTOR) does the source give for `CC(=O)Oc1ccc(-c2coc3c4c(c(CC=C(C)C)c(OC(C)=O)c3c2=O)OC(C)(C)C=C4)cc1OC(C)=O` [pomiferin triacetate, 4-(5-acetoxy-8,8-dimethyl-6-(3-methylbut-2-en-1-yl)-4-oxo-4H,8H-pyrano[2,3-f]chromen-3-yl)-1,2-phenylene diacetate] here?
**A.** can inhibit mTOR activity; also recorded: does not possess general kinase inhibition activity
